In ChEMBL document CHEMBL1201862, “PubChem BioAssay data set” (2004):
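Cultured in 96-well plates, cells were exposed to test compound for 48 hours across five concentrations. GI50 marks 50% less growth.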 Calls of active or inactive are those of the source. No stated cut-off is given here; in the data, active = GI50 up to about 1.1 µM and inactive = higher.

What was measured:
Test in all cases: NCI tumour cell line growth inhibition, 48 h
M19-MEL = tested on: M19-MEL
DLD-1 = tested on: DLD-1
DMS-273 = tested on: DMS-273
SNB-78 = tested on: SNB-78
KM-20L2 = tested on: KM-20L2
HOP-18 = tested on: HOP-18
XF498 = tested on: XF498
LXFL 529 = tested on: LXFL 529
RXF 631 = tested on: RXF 631

Compound | GI50 (M19-MEL) | GI50 (DLD-1) | GI50 (DMS-273) | GI50 (SNB-78) | GI50 (KM-20L2) | GI50 (HOP-18) | GI50 (XF498) | GI50 (LXFL 529) | GI50 (RXF 631)
C=C1C(=O)OCC2C(C(=O)O)=CC3C(C)C(C)=CC123 (stereo unspecified) | 14.7 µM (inactive) | 11 µM (inactive) | 18.5 µM (inactive) | 14.8 µM (inactive) | 11.9 µM (inactive) | 12.2 µM (inactive) | 12.5 µM (inactive) | – | –
CC(=O)c1ccc2c(c1)c1c(C)c3c[n+](C)ccc3c(C)c1n2C | 4.79 µM (inactive) | 4.56 µM (inactive) | 2.39 µM (inactive) | 4.53 µM (inactive) | 17.1 µM (inactive) | 17.2 µM (inactive) | 2.53 µM (inactive) | – | –
Cc1nc(N)nn1C1OCC(O)C(O)C1O (stereo unspecified) | – | > 100 µM (inactive) | > 100 µM (inactive) | > 100 µM (inactive) | > 100 µM (inactive) | – | > 100 µM (inactive) | > 100 µM (inactive) | –
O=C(/C=C/c1ccccc1O)c1cccs1 | > 100 µM (inactive) | > 100 µM (inactive) | > 100 µM (inactive) | > 100 µM (inactive) | > 100 µM (inactive) | 57.7 µM (inactive) | > 100 µM (inactive) | > 100 µM (inactive) | > 100 µM (inactive)
C/C(=C\c1ccccc1)C(O)C(=O)c1nc2ccc(Cl)cc2nc1O (stereo unspecified) | > 100 µM (inactive) | > 100 µM (inactive) | > 100 µM (inactive) | > 100 µM (inactive) | > 100 µM (inactive) | – | 92 µM (inactive) | 84.5 µM (inactive) | –
COc1ccc(C2=CC3CCC2C3)cc1 (stereo unspecified) | – | > 100 µM (inactive) | > 100 µM (inactive) | > 100 µM (inactive) | – | > 100 µM (inactive) | > 100 µM (inactive) | 0.0535 µM (active) | –
Cc1nc(-c2nc([N+](=O)[O-])c([N+](=O)[O-])[nH]2)cs1 | > 100 µM (inactive) | > 100 µM (inactive) | > 100 µM (inactive) | > 100 µM (inactive) | > 100 µM (inactive) | – | > 100 µM (inactive) | > 100 µM (inactive) | > 100 µM (inactive)
O=C(c1ccccc1)c1c(CC(O)c2cccnc2)n(C(=O)c2ccccc2)c2ccccc12 (stereo unspecified) | 19.7 µM (inactive) | – | 28.2 µM (inactive) | – | 21.3 µM (inactive) | – | 13.6 µM (inactive) | – | –
CN(C)CC(CC1=C(CC(CN(C)C)N(C)C)CCC1)N(C)C (stereo unspecified) | > 100 µM (inactive) | > 100 µM (inactive) | > 100 µM (inactive) | – | > 100 µM (inactive) | > 100 µM (inactive) | > 100 µM (inactive) | – | –
O=C1NN=C(c2ccc([N+](=O)[O-])cc2)C1n1nc(-c2ccccc2)c2ccccc2c1=O (stereo unspecified) | > 100 µM (inactive) | > 50.7 µM (inactive) | > 46 µM (inactive) | > 100 µM (inactive) | > 100 µM (inactive) | > 100 µM (inactive) | > 100 µM (inactive) | > 100 µM (inactive) | > 100 µM (inactive)
O=C1c2ccccc2C(=O)N1CCn1nc(-c2ccccc2)cc(-c2ccccc2)c1=O | 69.3 µM (inactive) | > 100 µM (inactive) | 49.5 µM (inactive) | > 100 µM (inactive) | > 100 µM (inactive) | 42.6 µM (inactive) | – | 52.2 µM (inactive) | 27.7 µM (inactive)
COc1cccc(-c2nccc3c(OCc4ccccc4)c(OC)c(OC)cc23)c1 | > 100 µM (inactive) | 7.74 µM (inactive) | 27.2 µM (inactive) | 63.1 µM (inactive) | > 100 µM (inactive) | – | > 100 µM (inactive) | 5.74 µM (inactive) | –
COc1cc2ccc3c4c(OC)cc(OC)c(OC)c4c([O-])[n+](C)c3c2cc1OC | 6.46 µM (inactive) | – | 0.428 µM (active) | 10.2 µM (inactive) | 9.38 µM (inactive) | > 100 µM (inactive) | 2.34 µM (inactive) | 1.79 µM (inactive) | > 100 µM (inactive)
NC(=O)c1csc(CCCCCCc2nc(C(N)=O)cs2)n1 | 18.7 µM (inactive) | > 73.6 µM (inactive) | > 100 µM (inactive) | > 100 µM (inactive) | > 100 µM (inactive) | > 100 µM (inactive) | – | > 100 µM (inactive) | > 100 µM (inactive)
CNC(C)Cc1ccc(O)cc1 (stereo unspecified) | – | > 100 µM (inactive) | > 100 µM (inactive) | > 100 µM (inactive) | > 100 µM (inactive) | > 100 µM (inactive) | > 100 µM (inactive) | > 100 µM (inactive) | > 100 µM (inactive)
CC(=O)NNc1nc(C)c(C(=O)NNC(=O)C(=O)Nc2ccc(Cl)cc2)s1 | > 100 µM (inactive) | – | – | > 100 µM (inactive) | > 100 µM (inactive) | – | > 100 µM (inactive) | 34.7 µM (inactive) | –
COCCOCCOCCOc1cccc2c1C(=O)c1cccc(OCCOCCOCCOC)c1C2=O | > 100 µM (inactive) | > 100 µM (inactive) | > 100 µM (inactive) | > 100 µM (inactive) | > 100 µM (inactive) | > 100 µM (inactive) | > 100 µM (inactive) | > 100 µM (inactive) | > 100 µM (inactive)
CCCn1cc2c(SC)nc(SC)nc2n1 | – | > 100 µM (inactive) | > 100 µM (inactive) | > 100 µM (inactive) | – | > 100 µM (inactive) | > 100 µM (inactive) | – | –
O=C1C(=O)N(c2cc(Cl)ccc2Cl)C(=O)C(=O)C1c1nc2ccccc2o1 | > 100 µM (inactive) | > 100 µM (inactive) | > 100 µM (inactive) | > 100 µM (inactive) | > 100 µM (inactive) | 63.1 µM (inactive) | > 100 µM (inactive) | > 100 µM (inactive) | > 100 µM (inactive)
C1=CC(=NN=P(c2ccccc2)(c2ccccc2)c2ccccc2)C=C1 | > 100 µM (inactive) | > 100 µM (inactive) | > 100 µM (inactive) | – | > 100 µM (inactive) | – | > 100 µM (inactive) | > 100 µM (inactive) | –
COc1cccc2c1C(=O)c1c(O)c3c(c(O)c1C2=O)CC(O)(C(C)=O)CC3O (stereo unspecified) | 5.79 µM (inactive) | 6.85 µM (inactive) | 2.3 µM (inactive) | 9.18 µM (inactive) | 6.85 µM (inactive) | 22.6 µM (inactive) | 0.537 µM (active) | – | –
CN(C)/C(=N\C#N)N(Cc1ccccc1)Cc1ccccc1 | > 100 µM (inactive) | 43.2 µM (inactive) | > 100 µM (inactive) | > 100 µM (inactive) | > 100 µM (inactive) | > 100 µM (inactive) | – | 56.5 µM (inactive) | –
CN(C)C(=O)/C=C/c1c[nH]c(=O)[nH]c1=O | – | > 500 µM (inactive) | > 500 µM (inactive) | – | > 500 µM (inactive) | > 500 µM (inactive) | – | – | –
Nc1ccc(/N=N/c2ccc(/C=C/c3ccc(/N=N/c4ccc(N)c5ccc(S(=O)(=O)O)cc45)cc3S(=O)(=O)O)c(S(=O)(=O)O)c2)c2cc(S(=O)(=O)O)ccc12 | > 100 µM (inactive) | > 100 µM (inactive) | > 88.1 µM (inactive) | > 100 µM (inactive) | > 100 µM (inactive) | > 100 µM (inactive) | > 62.2 µM (inactive) | – | –
c1ccc(N2N=C(c3ccco3)CC2c2ccco2)cc1 (stereo unspecified) | > 100 µM (inactive) | – | > 100 µM (inactive) | > 100 µM (inactive) | > 100 µM (inactive) | – | > 100 µM (inactive) | 64.1 µM (inactive) | –
O=C1c2cc3c(cc2[C@@H]2C(O)[C@H]4O[C@H]4C4CCN1C42)OCO3 (stereo partly specified) | – | – | > 37.5 µM (inactive) | – | > 37.5 µM (inactive) | – | > 37.5 µM (inactive) | > 37.5 µM (inactive) | –
CCCCCCCC/C=C\CCCCCCCC(=O)O [OLEIC ACID] | 101 µM (inactive) | 148 µM (inactive) | 110 µM (inactive) | 68.7 µM (inactive) | > 500 µM (inactive) | > 500 µM (inactive) | 8.91 µM (inactive) | – | –
CCCCCCCCCCCCCCCCCCOP(=O)([O-])OC1CC[N+](C)(C)CC1 [PERIFOSINE] | 4.01 µM (inactive) | 10.4 µM (inactive) | 2.86 µM (inactive) | 23.4 µM (inactive) | 2.24 µM (inactive) | – | 15.7 µM (inactive) | 4.03 µM (inactive) | –
